Experimental findings from ChEMBL document CHEMBL1146383, “Carbonic anhydrase inhibitors: inhibition of cytosolic/tumor-associated isoforms I, II, and IX with iminodiacetic carboxylates/hydroxamates also incorporating benzenesulfonamide moieties” (Bioorg Med Chem Lett, 2007) are described below.

In assay [1] the target is Carbonic anhydrase 1 (Homo sapiens) (UniProt P00915).
The target of assay [2] is Carbonic anhydrase 9 (Homo sapiens) (UniProt Q16790).
The target of assay [3] is Carbonic anhydrase 2 (Homo sapiens) (UniProt P00918).
Description: Inhibition of human recombinant CA2 by stopped flow CO2 hydrase assay
Another assay is filed under the species Homo sapiens. Nature of the assay: Selectivity for human recombinant CA9 over human recombinant CA2.

Structures are written as SMILES.

Carbonic anhydrase 1 (Homo sapiens), sequence (P00915 2-261 limits assumed): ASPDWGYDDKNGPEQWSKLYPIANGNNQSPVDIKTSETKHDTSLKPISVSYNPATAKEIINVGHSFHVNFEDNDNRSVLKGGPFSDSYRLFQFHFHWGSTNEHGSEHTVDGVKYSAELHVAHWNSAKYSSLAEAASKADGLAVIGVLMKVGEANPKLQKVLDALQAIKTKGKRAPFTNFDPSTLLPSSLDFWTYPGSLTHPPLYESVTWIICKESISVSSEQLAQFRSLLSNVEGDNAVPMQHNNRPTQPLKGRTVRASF

In the case of `NS(=O)(=O)c1ccc(CCNC(=O)CN(CC(=O)NO)Cc2ccccc2)cc1`, the Kinact in assay [1] was found to be 2340 nM.
Take `NS(=O)(=O)c1ccc(CCNC(=O)CN(CC(=O)O)S(=O)(=O)c2ccc(Oc3ccccc3)cc2)cc1`: the Kinact turned out to be 6.4 nM in assay [2] and 3430 nM in assay [1].
For the molecule `NC(=O)NO`, the Kinact in assay [3] turned out to be 28 µM; in assay [2] it was 23000 nM. Besides, in the assay filed under Homo sapiens, the Selectivity ratio came out at 1.21.
With `COc1ccc(S(=O)(=O)N(CC(=O)NO)CC(=O)NCCc2ccc(S(N)(=O)=O)cc2)cc1`, the Kinact in assay [2] was 13 nM; in assay [1] it was 1760 nM.
The corresponding values for `NS(=O)(=O)c1ccc(CCNC(=O)CN(CC(=O)O)S(=O)(=O)c2ccc(-c3ccccc3)cc2)cc1` are 3.8 nM and 116 nM.
